# Assay results reported in US9782464B2, “Methods and compositions for inhibiting diseases of the central nervous system” (Board of Regents of the University of Nebraska, priority 2008, dated 2017).
# Key:
# [1] = system: anti-CD3 stimulated T cells; assay: PI uptake cytotoxicity of anti-CD3 stimulated T cells (flow cytometry); format: cell-based, mouse; settings: 24 hours
# Description: To assess α-Syn-mediated cytotoxicity, purified T cells were stimulated with anti-CD3 and cultured at a density of 1×10^6 cells/ml for 24 hours in media alone or in the presence of 4YSyn or N-4YSyn at concentrations of 1, 3, 10, or 30 μg/ml. Cells were stained with PI, washed and the percentages of PI^+ dead cells and MFI were analyzed by flow cytometry.
# [2] = system: anti-CD3 stimulated T cells; assay: Proliferation of anti-CD3 activated T cells with 4YSyn or N-4YSyn; format: cell-based, mouse; settings: 1, 3, 10 and 30 μg/ml
# Description: For proliferation analyses, purified T cells from naive B6 mice were plated with SPC irradiated at 3000 rad (1:3) at 2×10^6 cells/ml in complete RPMI tissue culture media and activated with anti-CD3 (0.5 μg/ml, 145-2C11; BD Pharmingen) in U-bottom 96-well tissue culture plates. Graded concentrations of 4YSyn or N-4YSyn were added to quadruplicate wells. After activation for 3 days, ^3H-thymidine incorporation was performed as described previously.
# [3] = system: SPC (spleen cells); assay: Antigen-specific 3H-thymidine proliferation of SPC from immunized mice; format: cell-based, mouse; settings: B10.BR mice immunized in CFA/IFA
# [4] = system: MES23.5 cells; assay: Cathepsin B inhibition and neurotoxicity, microglial supernatants on MES23.5 cells; format: cell-based; settings: inhibitor 1 μM, N-α-syn 100 nM
# Description: MES 23.5 cells were cultured in 75-cm^2 flasks in DMEM/F12 with 15 mM HEPES (Invitrogen) containing N2 supplement (Invitrogen), 100 U/ml of penicillin, 100 μg/ml streptomycin, and 5% FBS. MES23.5 cells is a cell line derived using somatic cell fusion of rat embryonic mesencephalon cells and the murine neuroblastoma-glioma cell line N18TG2 that produce dopamine and express tyrosine hydroxylase (Crawford et al. (1992) J. Neuroscience 12:3392-3398). Cells were grown to 80% confluence then plated at a density of 10×10^4 cells on sterile glass coverslips. Microglia were plated in 6 well plates and incubated for 1 hour with or without 1 μM of cathepsin B inhibitors, CA-074 [cell impermeable] or CA-074 Me [cell permeable] (Sigma), in a 37° C., 5% CO2 incubator to inhibit residual cathepsin B expression (Gan et al. (2004) J. Biol. Chem., 279:5565-5572). […] MES 23.5 cell viability was assessed using the Live/Dead cytotoxicity assay (Invitrogen) as previously described. Live cells were distinguished by the uptake of calcein AM to acquire a green fluorescence [excitation/emission (ex/em) 495/515 nm], while dead cells acquired a red fluorescence (ex/em 495/635 nm) due to the uptake of ethidium homodimer-1 (EthD-1). Cell enumerations were performed using fluorescence microscopy (200× magnification, n=6 wells per group, 3 frames per well).
# [5] = system: primary microglia; assay: Flow cytometry of active caspase-3 and cathepsin B (CB) in microglia; format: cell-based, mouse; settings: N-α-syn-stimulated cultures
# Description: Samples from cell fractions were labeled with fluorescently labeled Abs to CD4, CD8, CD25, CTLA-4, CD62L, Fas ligand (FasL), Fas (APO-1), CD1 b, and intracellular FoxP3 (eBioscience) and active caspase-3 (Abcam) and analyzed with a FACSCalibur flow cytometer (BD Biosciences). FITC-latex beads ([…], 2.5% solids; Sigma-Aldrich) were added to microglial cultures for 30 minutes. Microglia were then detached and acid-washed (PBS, pH 6.0) to quench fluorescence of nonphagocytosed beads, and cells were analyzed by flow cytometry and gated to CD11b+ cells. Fluorescence intensity was normalized to beads alone.
# Apoptotic cells were detected using the TACS TdT Fluorescein In Situ Apoptosis Detection kit (R&D Systems) according to the manufacturer's protocol and were visualized by a fluorescent microscope. MFI of TUNEL+ cells was determined per field using ImageJ and was normalized to DAPI-stained nuclei (n=3, six fields per well). Caspase activity was determined using the SensoLyte Homogeneous Rh110 Caspase-3/7 Assay kit (AnaSpec) according to the manufacturer's protocol. Cell viability was determined by 3-(4,5-dimethylthiazol-2-yl)-2,5-diphenyl tetrazolium bromide (MTT) activity as described previously. Functional grade Abs to mouse FasL (2 μg/ml; eBioscience) and Fas (5 μg/ml; BD PharMingen) and CA074ME (BIOMOL) were used.
# [6] = system: TH+ neurons in the SN; assay: Chronic MPTP intoxication, TH+ neuron counts in SN of WT and SCID mice; format: in vivo, mouse
# Description: For chronic intoxication, B6 mice received 5 intraperitoneal (i.p.) injections at 24 hour intervals for 5 days of either vehicle (PBS, 10 ml/kg) or MPTP-HCl (30 mg/kg of free base in PBS) (Sigma-Aldrich, St. Louis, Mo.). For acute intoxication, mice received 4 i.p. injections, one every 2 hours, of either vehicle (PBS, 10 ml/kg) or MPTP-HCl (18 mg/kg of free base in PBS for B10.BR mice, 14 or 18 mg/kg for B6 mice). At selected time points following MPTP intoxication, mice were sacrificed and brains processed for subsequent analyses. MPTP handling and safety measures were in accordance with published guidelines (Przedborski et al. (2001) J. Neurochem., 76:1265-1274).
# At the time points indicated following MPTP intoxication, mice were transcardially perfused with 4% paraformaldehyde (PFA) in 0.1 M PBS using 0.9% saline as vascular rinse. Brains were post-fixed in 4% PFA overnight, kept in 30% sucrose for 2 days, snap frozen, embedded in OCT compound, and […] sections cut on a cryostat (CM1900, Leica, Bannockburn, Ill.). The sections were collected in PBS and processed free-floating. […] Fluoro-Jade C (Chemicon International, Inc., Temecula, Calif.) was used to stain degenerating neurons (Schmued et al. (2005) Brain Res., 1035:24-31) and was detected as green fluorescence by fluorescence microscopy with FITC filter (Eclipse E800, Nikon, Inc., Melville, N.Y.). […]
# [7] = system: MPTP-intoxicated B10.BR mice; assay: Adoptive transfer of immune SPC or T cells to MPTP-treated B10.BR mice; format: in vivo, mouse
# [8] = system: MPTP-intoxicated mice; assay: Adoptive transfer of polarized N-4YSyn CD4+ T cell subsets to MPTP-intoxicated mice; format: in vivo, mouse; settings: 7 days after MPTP
# Description: (§1) Recombinant C-terminal tail of α-syn (4YSyn) was purified, nitrated (N-4YSyn), and tested for endotoxin as described. Male C57BL/6J mice and FoxP3-GFP knock in C57BL/6J mice (5 weeks old, The Jackson Laboratory) were immunized with N-4YSyn emulsified in adjuvant as described. […] Recipient mice received four i.p. injections at 2 hour intervals of either vehicle (PBS, 10 mL/kg bodyweight) or MPTP-HCl (16 mg MPTP/kg bodyweight of free base in PBS; Sigma-Aldrich). Twelve hours after the last injection, MPTP-intoxicated mice received adoptive transfers of whole SPC, Treg or no cells (n=5-7 mice per group per time point). On days 2 and 7 post-MPTP, mice were sacrificed and brains were processed for analysis. […] MPTP safety measures were in accordance with published guidelines (Przedborski et al. (2001) J. Neurochem., 76:1265-1274).
# CD4+ T cells were isolated from N-4YSyn immunized donors and cultured 1×10^6/ml CD4+ T cells with 2×10^6/ml irradiated SPC and […] N-4YSyn in 20 ml of complete RPMI 1640 supplemented with 10% FBS, 2 mM L-glutamine, 10 mM HEPES, 55 μm 2-mercaptoethanol, 100 units/ml penicillin, and 100 μg/ml streptomycin in T25 flasks. […]
# Mice were transcardially-perfused with PBS followed by 4% paraformaldehyde (PFA, Sigma). […] Fluorojade C staining (Millipore) was performed on adjacent sections according to manufacturer's protocol to assess degenerating neurons and quantified using ImageJ. Overall dopaminergic neuron survival was assessed seven days following MPTP intoxication and resolution of cell death processes with polyclonal antibody to mouse Tyrosine hydroxylase (TH), 1:1000 (Calbiochem) and counterstained for Nissl substance by thionin staining (Tieu et al. (2003) J. Clin. Invest., 112:892-901) as previously described (Benner et al. (2004) Proc. Natl. Acad. Sci., 101:9435-9440). […] Quantitation of striatal TH (1:500; Calbiochem) was performed by densitometric analysis as described (Benner et al. (2004) Proc. Natl. Acad. Sci., 101:9435-9440). […]
# [9] = system: MPTP-intoxicated mice; assay: Adoptive transfer of N-4YSyn and VIP SPC or Treg to MPTP-intoxicated mice (Example 6); format: in vivo, mouse
# Description: as §1
# Seven days following treatment, mice were sacrificed and single cell suspensions were prepared from inguinal lymph nodes and spleens. CD4+ T cell populations from spleens and lymph nodes were enriched by negative selection with CD4-enrichment columns (R & D Systems) followed by CD25-PE positive selection with AutoMACS (Miltenyi Biotec). […] Proliferation and inhibition assays were performed as described. MPTP-intoxicated mice received an i.v. tail injection of 5×10^7 SPC or 1×10^6 Treg in 0.25 ml of HBSS.
# Mice were transcardially-perfused with PBS followed by 4% paraformaldehyde (PFA, Sigma). Frozen midbrain sections (30 μm) were immunostained for Mac-1 (CD11b, 1:1000; Serotec). Fluorojade C staining (Millipore) was performed on adjacent sections according to manufacturer's protocol to assess degenerating neurons and quantified using ImageJ. Overall dopaminergic neuron survival was assessed seven days following MPTP intoxication and resolution of cell death processes with polyclonal antibody to mouse Tyrosine hydroxylase (TH), 1:1000 (Calbiochem) and counterstained for Nissl substance by thionin staining (Tieu et al. (2003) J. Clin. Invest., 112:892-901) as previously described (Benner et al. (2004) Proc. Natl. Acad. Sci., 101:9435-9440). Total numbers of Mac-1^+ cells, […] and Nissl-stained neurons in the SNpc were estimated by stereological analysis with StereoInvestigator software (MicroBrightfield) using the optical fractionator module (Liberatore et al. (1999) Nat. Med., 5:1403-1409). Quantitation of striatal TH (1:500; Calbiochem) was performed by densitometric analysis as described (Benner et al. (2004) Proc. Natl. Acad. Sci., 101:9435-9440). Adjacent midbrain sections were immunostained for CD4 (L3T4; 1:200, BD Pharmingen). Sections were incubated in streptavidin-horseradish peroxidase (HRP) solution (ABC Elite vector kit, Vector Laboratories), and color developed using a generation system consisting of diaminobenzidine (DAB) chromogen (Sigma-Aldrich) as described (Benner et al. (2004) Proc. Natl. Acad. Sci., 101:9435-9440).
# [10] = system: MPTP-intoxicated B6 mice; assay: Adoptive transfer of immune SPC to MPTP-treated B6 mice; format: in vivo, mouse; settings: day 7
compound,measurement,setting,value
"4YSyn: recombinant His-tagged C-terminal 40 aa α-Syn fragment containing all four tyrosine residues, non-nitrated",% PI+ T cells,[1]; 1 μg/ml,4.9%
same,MFI of PI-stained T cells,[1]; 1 μg/ml,32.3
same,% PI+ T cells,[1]; 3 μg/ml,6%
same,MFI of PI-stained T cells,[1]; 3 μg/ml,34.1
same,% PI+ T cells,[1]; 10 μg/ml,4.7%
same,MFI of PI-stained T cells,[1]; 10 μg/ml,25.2
same,% PI+ T cells,[1]; 30 μg/ml,4.2%
same,MFI of PI-stained T cells,[1]; 30 μg/ml,26.8
same,proliferation of anti-CD3 stimulated T cells,[2],not inhibited
same,proliferative response of SPC to in vitro stimulation with the antigen,[3],no significant immune responses
CCCNC(=O)[C@H]1O[C@@H]1C(=O)N[C@H](C(=O)N1CCC[C@H]1C(=O)OC)[C@@H](C)CC [CA-074 Me],protection of DA cells v. N-α-syn alone,[4],87%
same,diminution of active caspase-3+ cells,[5],11.1±0.5%
"CN1CC=C(c2ccccc2)CC1 [MPTP, 1-methyl-4-phenyl-1,2,3,6-tetrahydropyridine]",numbers of TH+ neurons compared to PBS,[6]; SCID mice,No significant difference
same,reduction in numbers of TH+ neurons in the SN compared to PBS,"[6]; WT B6 mice, 21 days after last injection",33%
same,reduction of SN TH+ neurons compared to PBS controls,"[7]; MPTP-treated B10.BR mice, stereology",45%
same,Counts of Mac-1+ microglia,"[7]; SN of MPTP-treated B10.BR mice, mean±SEM",27.7±3.2 /mm^2
same,TH density within the striatum,[8],26 % of PBS-treated controls
same,loss of TH+ neurons vs PBS-treated controls,[8],25%
same,total TH+ neurons within the SNpc,[8],5971±250
same,increase in numbers of Mac-1+ cells within the SNpc compared with PBS controls,[9]; 2 days post-MPTP,greater than 16 fold
same,loss of nigral TH+ neurons compared with PBS controls,"[9]; 7 days after MPTP, FIG. 35C",45%
same,reduction of SNpc TH+ neurons compared with PBS controls,"[9]; 7 days after MPTP, FIG. 38B",48%
same,Striatal TH+ density,"[9]; 7 days after MPTP, FIG. 38C",16 % of PBS controls
same,TH+ neuron survival,"[9]; MPTP mice, FIG. 38D, Treg co-transferred with N-4YSyn SPC",49%
same,loss of TH+ nigral neurons compared to PBS-treated controls,[10],43%
